The source of these data is patent publication US7378387B2, “Method of suppressing immune response by reducing intracellular content of glutathione in macrophages and monocytes” (Ajinomoto Co., Inc., priority 1997, dated 2008).

In assay [1] the test system is reduced glutathione in intraperitoneal macrophages. As to the kind of experiment: Reduced glutathione in intraperitoneal macrophages of NOD mice by ACAS (Example 22). The format is in vivo. The note with it: doses given per substance.
The test system of assay [2] is macrophages within the thoracic cavity of the patient suffering from sarcoidosis. The assay is described as follows: GSH and GSSG content by enzyme recycling method in macrophages of a sarcoidosis patient incubated with NAC (Example 5). The settings on record: 5 mM NAC, 3 hours. The format is cell-based, human. The text has this:
The amounts of oxidative and reductive monocytes macrophages contained in monocytes preparation separated and collected in a usual manner from the peripheral blood and the thoracic cavity of the patient suffering from sarcoidosis were examined by biochemically measuring the contents of reductive glutathione (GSH) end oxidative glutathione (GSSG) by the enzyme recycling method. The peripheral blood of the healthy person was used as a control.
The peripheral blood of the healthy person and the peripheral blood of the patient suffering from sarcoidosis were collected with heparin. Or 150 ml of a physiological saline solution was injected into the bronchia of the patient using a bronchofiber, and 75 ml of bronchoalveolar lavaged fluid were recovered. Monocytes obtained by separating and purifying both of them using Ficoll-Hypaque (LYMPHOPREP) were suspended in an RPMI 1640 medium containing 10% fetal calf serum, and washed three times to obtain macrophage/monocyte preparation adherent to a glass petri dish for 30 minutes. Subsequently, a group incubated for 3 hours with the addition of 5 mM N-acetylcysteine (NAC) and a group of a medium component alone were prepared. A rubber policeman was used to recover adherent cells from the petri dish. With respect to 5×10^5 macrophages, the following examination was conducted.
The contents of reductive glutathione and oxidative glutathione were measured by the above-mentioned enzyme recycling method. […]
A 10 mM phosphate buffer (590 μl, pH 7.5) containing 0.5 mM EDTA, 100 μl of glutathione reductase (supplied by Boehlinger Mannhein) adjusted to a concentration of 6 u/ml in the same buffer, 50 μl of 4 mM NADPH (supplied by Sigma Co.) prepared with 5% NaHCO3 and 10 μl of the sample were mixed. […] The change in the absorbance of 412 nm at 37° C. over the course of time was measured using a spectrophotometer. […]

Assay [3] deals with reductive glutathione in MΦ. The assay is described as follows: GSH content in MΦ by ACAS after NAC drinking and/or IL-2 administration (Example 8). The format is in vivo, DBA/2 female mice. The note with it: NAC 1 mg/ml in city water; IL-2 intraperitoneally twice a day every two days for two weeks; day 14.
Procedure: Three-hundred microliters of a cell suspension adjusted concentration of 3×10^5 cells/ml in an RPMI 1640 medium (phenol red-free) were charged into a chambered coverglass (#136439, supplied by Nunc), and incubated at 37° C. for 2 hours using a CO2 incubator. The culture solution was washed with the medium, and 300 μl of monochlorobimane (supplied by Molecular Plobe) adjusted to 10 μM in the same medium were added thereto. The mixture was charged into a CO2 incubator of 37° C., and the reaction was conducted for 30 minutes. The fluorescent intensity was measured with ACAS. In ACAS, a UV laser was used.
Two groups, namely, a group of 8-week-old DBA/2 female mice which were caused to freely drink city water as in Example 6, and a group of the same female mice which were caused to freely drink city water containing 1 mg/ml of NAC, were prepared. Further, the two groups of the-above-mentioned mice to which human recombinant IL-2 in an amount of 2 pg/0.5 ml/h was intraperitoneally administered twice a day, every two days for two weeks were provided.
A further assay has as its system IL-12. The assay is described as follows: IL-12 production of MΦ after NAC drinking and/or IL-2 administration (Example 8). It counts as in vivo, DBA/2 female mice. The note with it: stimulated with LPS and IFNγ; control mice 0 pg/ml. Here is the method: The amount of IL-12 was determined through bioassay using cells of human T cell strain 2D6 (J. Leukocyte Biology, vol. 61, p. 346, 1997).
2D6 cells which had been incubated in an RPMI 1640 medium containing 500 pg/ml of recombinant human IL-12, 50 μM of 2-mercaptoethanol and 10% FCS (fetal calf serum) were moved to a tube, and centrifugally washed three times with the above-mentioned medium without IL-12 and cell density was adjusted to 1×10^5/ml. The cell suspension was added in an amount of 100 μl each to a 96-well flat bottom plate containing a sample serially diluted in advance with an RPMI 1640 medium containing 50 μM of 2-mercaptoethanol and 10% FCS in an amount of 100 μl each. Subsequently, the mixture was charged into a 5% […] incubator of 37° C., and incubated for 48 hours. For final 6 hours, ^3H-TdR was pulsed (a substance adjusted to 370 kBq/ml in an RPMI 1640 medium containing 50 μM of 2-mercaptoethanol and 10% FCS was added in an amount of 50 μl each). The cells a harvested, and the radioactivity was measured using a β counter (Matrix 96, supplied by Packard).

Assay [4] concerns dextran sulfate-induced inflammatory bowel disease. The assay is described as follows: Dextran sulfate-induced inflammatory bowel disease in γc knock out mice (Example 14). The format is in vivo. Here is the method: To 3-week-old γc knock out mice with +/− genotypes were administered 20 μg[…] of (NAC-OMe)2 three times a week for 2 weeks. On day 16, the free drinking of 1% dextran sulfate water was started. […] The γc knock out mice and their wild-type male mice (+/Y- and −/Y) and female mice (+/+, +/− and −/−) were caused to freely drink water containing 1% dextran sulfate as a inflammatory bowel disease model.

On to `CCOC(=O)CNC(=O)[C@H](CS)NC(=O)CC[C@H](N)C(=O)O` [GSH-OEt, glutathione monoethyl ester], for which the “relative ratio of oxidative macrophages compared with saline-dosed NOD mice” value in assay [1] (intraperitoneal dosing on alternate days from age 3-4 weeks) was “same action is also observed”; in assay [1] (oral dosing on alternate days from age 3-4 weeks) it was “same action is also observed”; in assay [1] (oral dosing on alternate days from age 3-4 weeks, listed as glutathione ethyl ester) it was “decreased”.

`CC(=O)N[C@@H](CS)C(=O)O` [NAC, N-acetylcysteine, reference compound]: in assay [2], the “ratio of reductive GSH” value was “exceeded 80%”. In assay [2] (without NAC 1.45 μM), the “content of reductive GSH” value is 20.45 µM. The “content of oxidative GSSG” value in assay [2] (without NAC 15.85 μM) amounted to 4.32 µM. Also, the “content of reductive glutathione in MΦ (ACAS)” value in assay [3] is listed as “markedly increased”. For the same compound, the “amount of IL-12” value in the assay with IL-12 was 620 pg/mL.

Turning to `COC(=O)[C@H](CSSC[C@H](NC(C)=O)C(=O)OC)NC(C)=O` [(NAC-OMe)2, N,N′-diacetylcystine dimethyl ester], in assay [4] (+/+ mice, non-administration 80%), the “occurrence rate of the inflammatory bowel disease” value was found to be 60%. Besides, the “occurrence rate of the inflammatory bowel disease, Day 30” value in assay [4] (+/− mice, 20 μg/h three times a week for 2 weeks, 1% dextran sulfate water from day 16, non-administration 100%) came out at 16.6%. Further, the survival rate in assay [4] (+/− mice, 20 μg/h three times a week for 2 weeks, 1% dextran sulfate water, non-administration 57%) is recorded as 100%.
